This series in a line: Selectivity of CPC solvent systems for contaminants of 10-DAB III (contaminants identified by HPLC relative retention time). It counts as physicochemical. The settings on record: CPC solvent mixture MTBE/acetone/water; Table 3. As for the experimental part: The HPLC methods used for the analysis: • 1. Isocratic method • Column: Dr Maisch ReproSil-Pur C18-AQ (150x4.0 mm, 3 um) • Column thermostat: 35 °C • Flow rate: 0.75 ml/min • Eluent: 28% acetonitrile, 72% water, 0.1% acetic acid • Detection wavelength: 230 +/- 5 nm • Injected volume: 10 ul • 2. Gradient method • Colum: Phenomenex Kinetex C18 (100x3.0 mm, 2.6 um) • Column thermostat: 35 °C • Flow rate: 0.7 ml/min • Eluent A: water + 0.1% acetic acid Eluent B: acetonitrile Gradient program: 0 min 20% B, 5 min: 30% B, 11 min 40% B, 13 min 40% B, 14 min 20% B, 18 min 20% B • Detection wavelength: 230 +/- 5 nm • Injected volume: 5 ul
Table 3: the selectivity matrix of the individual methods according to the invention

In the case of `CC(=O)O[C@@]12CO[C@@H]1C[C@H](O)[C@@]1(CO)C(=O)[C@H](O)C3=C(C)[C@@H](O)C[C@@](O)([C@@H](OC(=O)c4ccccc4)[C@H]21)C3(C)C` [RRT=0.48, 19-OH-10-deacetylbaccatin III], the selectivity result is recorded as “+++ (high selectivity)”.
